Experimental data: ChEMBL document CHEMBL1201862, “PubChem BioAssay data set” (2004)
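Compound exposure: 48 hours, 5 concentrations, 96-well plates. GI50 marks 50% less growth.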 Calls of active or inactive are those of the source. Cut-off read from the data, not from the text of the source: active = GI50 up to about 1.1 µM and inactive = higher.

Legend:
Assay in all cases: NCI-60 cell line screen, 48 h
[1] = tested on: A549
[2] = tested on: CCRF-CEM
[3] = tested on: EKVX
[4] = tested on: HCC 2998
[5] = tested on: HCT-15
[6] = tested on: HL-60
[7] = tested on: HT-29
[8] = tested on: M14
[9] = tested on: MOLT-4
[10] = tested on: NCI-H226
[11] = tested on: NCI-H460
[12] = tested on: OVCAR-8
[13] = tested on: SF-295
[14] = tested on: SK-MEL-28
[15] = tested on: SK-MEL-2
[16] = tested on: SK-OV-3
[17] = tested on: SR
[18] = tested on: A498
[19] = tested on: NCI/ADR-RES

| Compound | GI50 [1] | GI50 [2] | GI50 [3] | GI50 [4] | GI50 [5] [µM] | GI50 [6] | GI50 [7] | GI50 [8] | GI50 [9] | GI50 [10] | GI50 [11] | GI50 [12] | GI50 [13] | GI50 [14] | GI50 [15] | GI50 [16] | GI50 [17] | GI50 [18] | GI50 [19] |
| --- | --- | --- | --- | --- | --- | --- | --- | --- | --- | --- | --- | --- | --- | --- | --- | --- | --- | --- | --- |
| O=C(NCc1ccc2ccc3cccnc3c2n1)c1ccc[n+](Cc2ccccc2)c1 | > 100 µM (inactive) | > 100 µM (inactive) | > 100 µM (inactive) | > 100 µM (inactive) | > 100 | > 100 µM (inactive) | 98.6 µM (inactive) | > 100 µM (inactive) | > 100 µM (inactive) | > 100 µM (inactive) | > 100 µM (inactive) | > 100 µM (inactive) | > 100 µM (inactive) | > 100 µM (inactive) | > 100 µM (inactive) | > 100 µM (inactive) | > 100 µM (inactive) |  |  |
| NC(=O)NC(=O)c1cnccn1 | > 100 µM (inactive) | > 100 µM (inactive) | > 100 µM (inactive) | > 100 µM (inactive) | > 100 |  |  | > 100 µM (inactive) | > 100 µM (inactive) | 54.1 µM (inactive) | > 100 µM (inactive) |  | > 100 µM (inactive) | > 100 µM (inactive) | > 100 µM (inactive) | > 100 µM (inactive) |  | > 100 µM (inactive) | > 100 µM (inactive) |
| COc1ccccc1OCc1nnc(SCC(=O)O)n1-c1ccccc1 | > 100 µM (inactive) | > 100 µM (inactive) | > 100 µM (inactive) | > 100 µM (inactive) | > 100 | > 100 µM (inactive) | > 100 µM (inactive) | > 100 µM (inactive) | > 100 µM (inactive) | > 100 µM (inactive) | > 100 µM (inactive) | > 100 µM (inactive) | > 100 µM (inactive) | > 100 µM (inactive) | > 100 µM (inactive) | > 100 µM (inactive) | > 100 µM (inactive) | > 100 µM (inactive) |  |
| CCOC(=O)CC(NCc1ccc(/N=C/c2nc3ccc(C(F)(F)F)cc3nc2-c2ccccc2)cc1)C(=O)OCC (stereo unspecified) | > 100 µM (inactive) | > 100 µM (inactive) | > 69.5 µM (inactive) | 27 µM (inactive) | > 100 | > 100 µM (inactive) | > 100 µM (inactive) | > 80.7 µM (inactive) | > 100 µM (inactive) | > 100 µM (inactive) | > 100 µM (inactive) | > 100 µM (inactive) | 27.2 µM (inactive) | > 100 µM (inactive) | > 47.3 µM (inactive) | 29 µM (inactive) | > 100 µM (inactive) | > 61.1 µM (inactive) |  |
| CC(=O)OC1C(=O)C(O)C(C)OC1O[C@@H]1C[C@@]2(C)[C@@H]3CC=C4[C@@H](C[C@H](O)C(=O)C4(C)C)[C@]3(C)C(=O)C[C@]2(C)[C@H]1[C@@](C)(O)C(=O)/C=C/C(C)(C)O (stereo partly specified) | 2.64 µM (inactive) | 0.662 µM (active) | 3.86 µM (inactive) | 2.27 µM (inactive) | 1.08 | 1.91 µM (inactive) | 1.35 µM (inactive) | 0.918 µM (active) | 3.51 µM (inactive) | 0.693 µM (active) | 1.98 µM (inactive) | 6.28 µM (inactive) | 3.03 µM (inactive) | 0.447 µM (active) | 0.748 µM (active) | 3.06 µM (inactive) | 1.52 µM (inactive) | 0.577 µM (active) |  |
| C/C(COc1ccccc1)=N\NC(N)=S | > 100 µM (inactive) | 61.7 µM (inactive) | > 100 µM (inactive) | > 100 µM (inactive) | > 100 | > 100 µM (inactive) | 61.9 µM (inactive) | > 100 µM (inactive) | > 100 µM (inactive) | > 100 µM (inactive) | > 10 µM (inactive) | > 100 µM (inactive) | > 100 µM (inactive) | > 100 µM (inactive) | > 100 µM (inactive) | > 100 µM (inactive) | > 100 µM (inactive) | > 100 µM (inactive) |  |
| CN/N=C(/CC(=O)c1sc(NNC(C)=O)nc1C)C(=O)Nc1ccc(OC)cc1OC | > 100 µM (inactive) | > 100 µM (inactive) | 59.7 µM (inactive) | > 100 µM (inactive) | > 100 | > 100 µM (inactive) | > 100 µM (inactive) | > 100 µM (inactive) | > 100 µM (inactive) | > 100 µM (inactive) | > 100 µM (inactive) | > 100 µM (inactive) | > 100 µM (inactive) | > 100 µM (inactive) | > 100 µM (inactive) |  | > 100 µM (inactive) | > 100 µM (inactive) |  |
| Clc1ccc(CNc2nc3ccccc3nc2-c2cccs2)c(Cl)c1 | 97.3 µM (inactive) | 98.9 µM (inactive) | > 100 µM (inactive) | 43.5 µM (inactive) | 38.1 | 21.9 µM (inactive) | 61 µM (inactive) |  | 27.9 µM (inactive) | > 100 µM (inactive) | > 100 µM (inactive) | > 100 µM (inactive) | > 100 µM (inactive) | > 100 µM (inactive) | > 100 µM (inactive) |  | 31.2 µM (inactive) |  |  |
